Source: paper PMC10702189, “Tetrazine Glycoconjugate for Pretargeted Positron Emission Tomography Imaging of trans-Cyclooctene-Functionalized Molecular Spherical Nucleic Acids” (ACS Omega, 2023)

Legend:
[1] = In vivo dynamic PET/CT imaging in healthy Balb/cAnNrj mice; settings: dynamic PET
Description: Animal studies were approved by the national Project Authorization Board in Finland (licenses: ESAVI/12132/04.10.07/2017 and ESAVI/8648/2020) and were carried out in compliance with EU Directive 2010/EU/63 on the protection of animals used for scientific purposes. Healthy female Balb/cAnNrj mice (9–14 weeks old, 19 weeks old for fasting studies) were used for experiments with [^18F]FDG-Tz. Female Rj:Athymic-Foxn1^nu/nu mice (8–10 weeks old) bearing subcutaneous HER2-expressing HCC1954 tumors were used for pretargeted and control preclicked experiments with [^18F]TCO-MSNA, detailed information for the mice preparation was described earlier.[59] Animals were housed in individually ventilated cages under a 12 h light/dark cycle with ad libitum access to water and food unless otherwise stated. Animals were anesthetized with isoflurane (induction 4–5%, maintenance 1.5–2.5%, 0.4 L/min O2) and sacrificed by cervical dislocation after applying cardiac puncture for blood collection.
For in vivo [^18F]FDG-Tz studies, four mice were injected with 4.0–4.8 MBq in 50–80 μL volume via the tail vein. Animals were imaged with Molecubes β-cube (PET) and X-cube (CT) (MOLECUBES NV, Ghent, Belgium) for 60 min and reconstructed into time frames 30 × 10, 15 × 60, 4 × 300 s, and 2 × 600 s. For pretargeted experiments as well as control imaging with preclicked [^18F]TCO-MSNA, Inveon Multimodality PET/CT (Siemens Medical Solutions, Knoxville, TN, USA) was used to perform dynamic PET with 6 × 10, 4 × 60, and 11 × 300 s time frames. For pretargeted imaging, TCO-MSNA (50 μL, 2.5 nmol of TCO) was injected 20 min prior to [^18F]FDG-Tz (63 ± 17 μL) administration via the tail vein. For all experiments two animals were imaged at the same time under isoflurane anesthesia. Mice were sacrificed immediately after imaging for ex vivo evaluation.
Image analysis was performed with Carimas software (version 2.10, Turku PET Centre, Turku, Finland). CT scans were utilized as an anatomical reference combined with the radioactivity signal from PET images. Regions of interest (ROIs) within the selected organs were defined in three dimensions. Blood pool results were obtained from the heart left ventricle cavity; tumor ROIs were drawn excluding the fluid-filled tumor core (Figure S13). Standardized uptake values (SUV) were calculated, corrected with the remaining radioactivity in the cannula, tail, and syringe, and decay-corrected to the time of injection.

[2] = Stability in end product formulation by analytical radio-HPLC; type: physicochemical; settings: for 6 h from EOS, end product formulation (PBS, ethanol ≤10%) at r.t.
Description: Chemical and radiochemical purity and stability of precursors and radiotracers were measured with analytical HPLC (Hitachi LaChrom Elite, Schaumburg, USA). Jupiter Proteo reversed-phase C18 column (4 μm, 250 mm × 4.6 mm) was used at a flow rate of 1 mL/min. HPLC eluents were A, 0.1% trifluoroacetic acid (TFA, v/v) in water; B, 0.1% TFA in acetonitrile. The gradient changed from 15% to 35% in 0–15 min. For radiolabeled MSNA quality control, SEC at a flow rate of 1 mL/min was used (Waters Protein-Pak 33SW (7.5 × 300 mm), eluent 0.1 M KH2PO4, pH 7.0).
The cyclotron produced [^18F]fluoride, dissolved in ^18O-enriched water (Rotem Industries Limited, Arava, Israel), was trapped in a Sep-Pak QMA Plus Light cartridge (Waters, preconditioned with 10 mL of 0.5 M K2CO3, 15 mL of water). [^18F]F^– was eluted from the cartridge with 2 mL of QMA-eluent solution (stock solution contains 237.5 mg of Kryptofix 2.2.2, 42.5 mg of potassium carbonate, 2 mL of Milli-Q water in 50 mL of acetonitrile). The reaction mixture was evaporated to dryness with Ar gas flow (70 mL/min for 10 min, and then 80 mL/min for 5–10 min more) under heating at 120 °C. […] The stability of [^18F]FDG-Tz was analyzed by analytical radio-HPLC up to 6 h after EOS in the end product formulation at r.t.

O=C(CCON=C[C@H]([18F])[C@@H](O)[C@H](O)[C@H](O)CO)NCc1ccc(-c2nncnn2)cc1 [[^18F]FDG-Tz]
Heart SUV ([1]; 0.6 min): 5.06 ± 4.25 SUV
Blood SUV ([1]; 0.8 min): 5.26 ± 2.69 SUV
Brain SUVpeak ([1]; 0.8 min): 0.33 ± 0.20 SUV
Liver SUV ([1]; 4.5 min): 5.63 ± 1.11 SUV
Blood SUV ([1]; 60 min): 0.43 ± 0.06 SUV
Brain SUV ([1]; 60 min): 0.05 ± 0.01 SUV
Heart SUV ([1]; 60 min): 0.41 ± 0.05 SUV
Liver SUV ([1]; 60 min): 2.00 ± 0.57 SUV
Radiochemical purity retained (stability) [2]: > 98%
